Counter-ions that a name gives are not always drawn. Like-named read-outs stand apart in the source and are kept apart here.
Tests used:
Test in all cases: cells
[1] = test system: HCT116 cells treated with a GSK3β inhibitor; type: cell-based
[2] = test system: endothelial tube formation in co-cultures of ECFCs and ADSCs treated with VEGF; type: cell-based, human
[3] = test system: INS-1E cells; type: cell-based, rat
[4] = test system: NCI-H716 cells; type: cell-based, Human
[5] = test system: HCT116; type: cell-based
[6] = test system: DLD-1; type: cell-based
[7] = test system: SW480; type: cell-based
[8] = test system: nuclear β-catenin in C2C12 cells; type: cell-based
[9] = test system: HeLa cells; type: cell-based; settings: IC50 / EC50; HeLa; read-out: CellCycle G2/M
[10] = read-out: GSK3b inh pretreated_Viability ATP HCT116
[11] = read-out: Basal_Viability ATP HCT116
[12] = read-out: Basal_Viability ATP DLD-1
[13] = read-out: Basal_Viability ATP SW480
[14] = Homo sapiens, HCT-116, GSK3b inhibitor pretreated, read-out: GSK3b inh pretreated_Viability ATP HCT116
[15] = Homo sapiens, IC50 / EC50, endothelial tube area, ADSC/ECFC co-culture, read-out: Anti-Angiogenesis
[16] = Rattus norvegicus, IC50 / EC50, INS-1E, read-out: Insulin Secretion
[17] = Homo sapiens, IC50 / EC50, NCI-H716, read-out: GLP 1 Secretion
[18] = Homo sapiens, HCT-116, basal, read-out: Basal_Viability ATP HCT116
[19] = Homo sapiens, DLD-1, basal, read-out: Basal_Viability ATP DLD-1
[20] = Homo sapiens, SW480, basal, read-out: Basal_Viability ATP SW480
[21] = Mus musculus, C2C12, IC50 / EC50, C2C12 beta-catenin translocation, read-out: Wnt Pathway
[22] = GSK3b inhibitor pretreated, read-out: GSK3b inh pretreated_Viability ATP HCT116
[23] = IC50 / EC50, INS-1E, read-out: Insulin Secretion
[24] = IC50 / EC50, NCI-H716, read-out: GLP 1 Secretion
[25] = basal, read-out: Basal_Viability ATP HCT116
[26] = basal, read-out: Basal_Viability ATP DLD-1
[27] = basal, read-out: Basal_Viability ATP SW480
[28] = IC50 / EC50, C2C12 beta-catenin translocation, read-out: Wnt Pathway

Q: With `COc1ccc(OC(=O)N(CC(=O)O)Cc2ccc(OCCc3nc(-c4ccccc4)oc3C)cc2)cc1` as the molecule, how does the IC50 [1, 10] read?
A: Its IC50 is 6.13 µM.

Q: And the IC50 ([2]; read-out: Anti-Angiogenesis)?
A: The IC50 was greater than 10 µM.

Q: What about the EC50 ([3]; read-out: Insulin Secretion) of the same molecule?
A: The EC50 was greater than 10 µM.

Q: What about the EC50 ([4]; read-out: GLP 1 Secretion) of the same molecule?
A: Its EC50 is 1.54 µM.

Q: And the IC50 [5, 11]?
A: The IC50 was 7.65 µM.

Q: What about the IC50 [6, 12] of the same molecule?
A: Its IC50 is 9.55 µM.

Q: And the IC50 [7, 13]?
A: The IC50 was 6.23 µM.

Q: What about the EC50 ([8]; read-out: Wnt Pathway) of the same molecule?
A: Its EC50 is greater than 10 µM.

Q: What does the source list for `Oc1ccc2[nH]cc(CCCCN3CC=C(c4ccccc4)CC3)c2c1` [Roxindole hydrochloride]?
A: IC50 [1, 10]: 3.32 µM; IC50 ([2]; read-out: Anti-Angiogenesis): 4.04 µM; EC50 ([3]; read-out: Insulin Secretion): > 10 µM; EC50 ([4]; read-out: GLP 1 Secretion): > 10 µM; IC50 [5, 11]: 2.5 µM; IC50 [6, 12]: 4.54 µM; IC50 [7, 13]: 2.47 µM; EC50 ([8]; read-out: Wnt Pathway): > 10 µM

Q: Which IC50 [1, 14] does the source give for `CC1=C(C(=O)OC(C)C)C(c2cccc([N+](=O)[O-])c2)C(C(=O)OC2CN(C(c3ccccc3)c3ccccc3)C2)=C(N)N1` (stereo not drawn) [Azelnidipine] here?
A: Its IC50 is 5.5 µM.

Q: What about the IC50 [2, 15] of the same molecule?
A: The IC50 was 3.58 µM.

Q: And the EC50 [3, 16]?
A: The EC50 was greater than 10 µM.

Q: What about the EC50 [4, 17] of the same molecule?
A: The EC50 was 1.23 µM.

Q: And the IC50 [5, 18]?
A: Its IC50 is 3.69 µM.

Q: And the IC50 [6, 19]?
A: The IC50 was 5.1 µM.

Q: What about the IC50 [7, 20] of the same molecule?
A: The IC50 was 3.84 µM.

Q: And the EC50 [8, 21]?
A: The EC50 was greater than 10 µM.

Q: With `CCC1=C(C)CN(C(=O)NCCc2ccc(S(=O)(=O)NC(=O)N[C@H]3CC[C@H](C)CC3)cc2)C1=O` [glimepiride, reference compound] as the molecule, how does the IC50 ([1]; Homo sapiens, HCT-116, read-out: HCT-116 (GSK3β) viab. IC50, Table 2, GSK3β inhibitor LY2090314 20 nM, 72 h, Cell TiterGlo, 20 coded) read?
A: The IC50 was greater than 20 µM.

Q: What about the IC50 ([2]; Homo sapiens, Table 2, primary assay tube area, 20 = no response in concentration-response, 20.1 = inactive in single concentration testing, read-out: Anti-Angio IC50) of the same molecule?
A: Its IC50 is greater than 10 µM.

Q: And the EC50 ([3]; Rattus norvegicus, INS-1E, read-out: Ins. sec. EC50)?
A: Its EC50 is 0.004 µM.

Q: And the EC50 [3, 16]?
A: Its EC50 is 0.00406 µM.

Q: And the EC50 ([3]; Rattus norvegicus, INS-1E, 5 mM glucose, read-out: insulin secretion EC50)?
A: The EC50 was 0.0041 µM.

Q: And the EC50 ([4]; Homo sapiens, NCI-H716, read-out: GLP1 sec. EC50)?
A: Its EC50 is greater than 10 µM.

Q: What about the IC50 ([5]; Homo sapiens, HCT-116, 72 h, read-out: HCT-116 viab. IC50, Table 2, basal, 72 h, Cell TiterGlo, non-adherent, 20 coded) of the same molecule?
A: Its IC50 is greater than 20 µM.

Q: And the IC50 ([6]; Homo sapiens, DLD-1, 72 h, Table 2, 72 h, Cell TiterGlo, non-adherent, 20 coded, read-out: DLD-1 viab. IC50)?
A: The IC50 was greater than 20 µM.

Q: And the IC50 ([7]; Homo sapiens, SW480, 72 h, Table 2, 72 h, Cell TiterGlo, non-adherent, 20 coded, read-out: SW480 viab. IC50)?
A: The IC50 was greater than 20 µM.

Q: What about the EC50 ([8]; Mus musculus, C2C12, Table 2, C2C12, […], 20 / 20.1 coded, read-out: Wnt pot. EC50) of the same molecule?
A: Its EC50 is greater than 10 µM.

Q: Which IC50 [1, 22] does the source give for `Cc1cc(CC(C)CC(C)(C)C)n(O)c(=O)c1` (stereo not drawn) [Piroctonum] here?
A: Its IC50 is 0.506 µM.

Q: And the EC50 [3, 23]?
A: The EC50 was greater than 10 µM.

Q: And the EC50 [4, 24]?
A: The EC50 was greater than 10 µM.

Q: What about the IC50 [5, 25] of the same molecule?
A: Its IC50 is 0.772 µM.

Q: What about the IC50 [6, 26] of the same molecule?
A: Its IC50 is 1.08 µM.

Q: What about the EC50 [9] of the same molecule?
A: Its EC50 is greater than 10 µM.

Q: And the IC50 [7, 27]?
A: Its IC50 is 0.581 µM.

Q: And the EC50 [8, 28]?
A: Its EC50 is 0.591 µM.

Q: Which IC50 [1, 22] does the source give for `O=C(O)c1ccccc1-c1c2cc(I)c(=O)c(I)c-2oc2c(I)c(O)c(I)cc12` [Erythrosin b] here?
A: Its IC50 is greater than 20 µM.

Q: What about the IC50 ([2]; IC50 / EC50, endothelial tube area, ADSC/ECFC co-culture, read-out: Anti-Angiogenesis) of the same molecule?
A: Its IC50 is greater than 10 µM.

Q: And the EC50 [3, 23]?
A: Its EC50 is greater than 10 µM.

Q: And the EC50 [4, 24]?
A: The EC50 was 2.93 µM.

Q: What about the IC50 [5, 25] of the same molecule?
A: The IC50 was greater than 20 µM.

Q: And the IC50 [6, 26]?
A: Its IC50 is greater than 20 µM.

Q: What about the IC50 [7, 27] of the same molecule?
A: Its IC50 is greater than 20 µM.

Q: What about the EC50 [8, 28] of the same molecule?
A: The EC50 was greater than 10 µM.

Q: Which IC50 [1, 22] does the source give for Janssen brand of muromonab-cd3 here?
A: The IC50 was 3.66 µM.

Q: And the EC50 [3, 23]?
A: Its EC50 is greater than 10 µM.

Q: And the EC50 [4, 24]?
A: Its EC50 is 0.79 µM.

Q: And the IC50 [5, 25]?
A: Its IC50 is 2.64 µM.

Q: And the IC50 [6, 26]?
A: The IC50 was 2.81 µM.

Q: What about the EC50 [9] of the same molecule?
A: Its EC50 is greater than 10 µM.

Q: What about the IC50 [7, 27] of the same molecule?
A: Its IC50 is 3.22 µM.

Q: And the EC50 [8, 28]?
A: The EC50 was greater than 10 µM.

Q: `O=C1Nc2ccc(Cl)cc2[C@@](C#CC2CC2)(C(F)(F)F)O1` [efavirenz, reference compound] was tested. Which IC50 [1, 14] did it give?
A: Its IC50 is 7.3 µM.

Q: And the IC50 [2, 15]?
A: Its IC50 is greater than 10 µM.

Q: And the EC50 [3, 16]?
A: The EC50 was 3.87 µM.

Q: What about the “activity in the GLP-1 secretion assay (in words)” value [4] of the same molecule?
A: Its value is “exhibited activity in the GLP-1 secretion assay”.

Q: What about the EC50 [4, 17] of the same molecule?
A: The EC50 was 2.48 µM.

Q: What about the IC50 [5, 18] of the same molecule?
A: Its IC50 is 6.17 µM.

Q: What about the IC50 [6, 19] of the same molecule?
A: Its IC50 is greater than 20 µM.

Q: What about the IC50 [7, 20] of the same molecule?
A: The IC50 was 4.61 µM.

Q: What about the EC50 [8, 21] of the same molecule?
A: Its EC50 is greater than 10 µM.

Q: Which results are given for `Nc1cc(C(F)(F)F)ccc1S`?
A: IC50 ([1]; HCT116 pretreated with GSK3b inhibitor, read-out: GSK3b inh pretreated_Viability ATP HCT116): > 20 µM; IC50 ([2]; read-out: Anti-Angiogenesis): > 10 µM; EC50 ([3]; S2 Table, module primary assay, 20 / 20.1 codes per legend, read-out: Insulin Secretion): > 10 µM; EC50 ([4]; read-out: GLP 1 Secretion): 1.16 µM; IC50 ([5]; basal, HCT116, read-out: Basal_Viability ATP HCT116): > 20 µM; IC50 ([6]; basal, DLD-1, read-out: Basal_Viability ATP DLD-1): > 20 µM; IC50 ([7]; basal, SW480, read-out: Basal_Viability ATP SW480): > 20 µM; EC50 ([8]; S2 Table, module primary assay, 20 / 20.1 codes per legend, read-out: Wnt Pathway): > 10 µM

Reference: publication PMC4503722, “Novel Phenotypic Outcomes Identified for a Public Collection of Approved Drugs from a Publicly Accessible Panel of Assays” (PLoS ONE, 2015)
